According to a melting point compilation (Tetko et al.):

| SMILES | melting point [°C] |
| --- | --- |
| NCC(O)CN | 43 |
| C=CC(=O)NC(O)C(=O)O (stereo not drawn) | 123 to 127 |
| CCCCCc1ccc(O)cc1O | 72.5 |
| C=CC12CN(C)C3C4COC(CC41)C1(C(=O)Nc4ccccc41)C32 (stereo not drawn) | 178 |
| c1ccc2c(c1)C1c3ccccc3C2c2ccccc21 | 254 |
| CSC(=O)c1c(C(F)F)nc(C(F)(F)F)c(C(=O)SC)c1CC(C)C | 65 |
| C[Si](c1ccccc1)(c1ccccc1)[Si](C)(c1ccccc1)c1ccccc1 | 138 to 140 |
| O=C(O)COC(=O)Cc1ccccc1Nc1c(Cl)cccc1Cl | 149 |
| CCOc1ccc(NS(=O)(=O)c2ccc(N)cc2)nn1 | 183 |
| Clc1ccc(C2(Cn3cncn3)CC(Br)CO2)c(Cl)c1 (stereo not drawn) | 84 |
| NC(=O)C#CC(N)=O | 238 |
| COc1ccc(C(=O)Cc2ccccc2)cc1OC | 87 to 88 |
| NC(=O)C=CC(=O)O | 172 |
| NC(=O)Nc1ccc(Cl)cc1 | 206 |
| C=C(C(=O)O)c1ccccc1 | 106 |
| ClCCC(Cl)Cl | -59 |
| O=[N+]([O-])c1ccc(-c2nnc3sc(/C=C/c4ccccc4)nn23)cc1 | 112 to 114 |
| O=[N+]([O-])c1cccc(F)c1CBr | 52 |
| CN(C)C(=S)SSC(=S)N(C)C | 156 |
| ClCCCc1ccccc1 | -27 |
| Cc1sc2ccccc2c1CC1=NCCN1 | 156 |
| O=C(O)C=C(CC(=O)O)C(=O)O | 187 to 191 |
| CC(=O)C1=CCC2(C)C(CCC3C4CCC(=O)C4(C)CCC32)C1 (stereo not drawn) | 152 to 153 |
| COc1coc(CSP(=O)(OC)OC)cc1=O | 96 |

| SMILES | melting point [°C] |
| --- | --- |
| OCCNc1nccnc1Cl | 54 to 58 |
| O=C(Nc1ccc(N=Nc2ccc([N+]([O-])=Nc3ccc(NC(=O)c4ccccc4)cc3)cc2)cc1)c1ccccc1 | 328 |
| SC1=NN=C(S)NN1 | 191 to 193 |
| N#Cc1c(F)cccc1Oc1ccc(F)cc1 | 73 to 74 |
| N#CCN(CC#N)CC#N | 126 |
| Nc1cccc(-c2ccccc2)c1 | 33 |
| O=C(Nc1ccc(F)cc1)c1c(O)c(F)c(F)c(F)c1F | 130 |
| Nc1cccc(Br)n1 | 90 |
| NC(=O)/C(=N\Nc1c(Cl)cccc1Cl)c1nc2ccccc2s1 | 175 |
| COc1c(Cl)ccc(Cl)c1C(=O)O | 115 |
| Cc1cc2c(c(=O)n1Cc1ccccc1)C(c1ccccc1)C(C#N)=C(N)O2 (stereo not drawn) | 275 to 277 |
| Brc1ccncc1 | 0.5 |
| Oc1ccc(C2=Cc3ccccc3C(c3ccccc3)O2)cc1 (stereo not drawn) | 121 |
| O=C(O)c1ccc(-c2cccs2)s1 | 177 to 178 |
| O=C1c2ccccc2C(=O)N1CCS(=O)(=O)Cl | 158 |
| CCOC(=O)CNC(c1ccccc1)(c1ccccc1)c1ccccc1 | 114 |
| COc1ccc2[nH]cc(CCN(C)C)c2c1 | 69.5 |
| O=[N+]([O-])c1cc2nccnc2cc1Br | 221 to 227 |
| Nc1nc(S)nc2[nH]ncc12 | 300 |
| O=C1C(=Cc2ccc(O)c(O)c2)Oc2cc(O)ccc21 | 303 |
| Clc1cc(Cl)nc(-c2ccccc2)n1 | 96.9 |
| O=C(/C=C/O)CCc1ccccc1 | 150 |
| COCc1cc(=O)oc2cc(N)ccc12 | 184 |
| NCc1cccc(-c2ccsc2)c1 | 80 |

| SMILES | melting point [°C] |
| --- | --- |
| O=S1(=O)CCOCC1 | 132 |
| O=[N+]([O-])c1c(Cl)ccc2nsnc12 | 149 to 152 |
| O=C(N[C@@H](Cc1ccc(F)cc1)C(=O)O)OCC1c2ccccc2-c2ccccc21 | 185 |
| O=[N+]([O-])c1ccc(-n2ncc3cccnc32)c([N+](=O)[O-])c1 | 181 to 187 |
| COc1ccc(C2C(C#N)=C(N)Oc3[nH]nc(C(F)(F)F)c32)cc1 (stereo not drawn) | 204 |
| O=Cc1[nH]ncc1Br | 80 to 82 |
| COc1cc2ccc(=O)oc2cc1O | 204 |
| NC(=S)c1cccc(-n2cccc2)c1 | 110 to 112 |
| CC12CCC(O)CC1CCC1C2CCC2(C)C(OC(=O)c3ccccc3)CCC12 (stereo not drawn) | 194 |
| O=C(O)CSc1ccnc2cc(Cl)ccc12 | 223 to 225 |
| O=C(Oc1c(F)c(F)c(F)c(F)c1F)c1ccc(-c2cccs2)nc1 | 140 to 142 |
| CC12CCC3C(CCC4CC(C[N+](=O)[O-])=CCC43C)C1CCC2O (stereo not drawn) | 129 |
| Clc1cc2oc3cc(Cl)c(Cl)cc3c2cc1Cl | 227 |
| O=C(O)CCCC(=O)c1cccs1 | 96 |
| O=S(=O)(Oc1ccccc1)c1ccccc1C=Cc1ccccc1S(=O)(=O)Oc1ccccc1 | 180 |
| CC(=O)Nc1nc(O)c2nc[nH]c2n1 | 260 |
| O=c1[nH]c2ccccc2c(-c2ccccc2)c1O | 268 |
| ClCC(Cl)(Cl)C(Cl)(Cl)Cl | 26 |
| CN[C@@H](Cc1ccc(O)cc1)C(=O)O | 293 |
| Clc1cccc2cccc(Cl)c12 | 89 |
| Oc1ccc(C(F)(F)F)cc1 | 46 |
| Nc1nc2ccc(OC(F)(F)F)cc2s1 | 119 |
| O=C(O)c1ccc(Oc2ccccc2)nc1 | 164 |

Next, values leading:

| melting point [°C] | SMILES |
| --- | --- |
| 119 | O=S(=O)(Cl)c1cc(Cl)c(O)c(Cl)c1 |
| 142 to 144 | CCCCOc1cc(C(=O)O)ccc1OC |
| 45 | CC(CN(C)C)CN1c2ccccc2CCc2ccccc21 (stereo not drawn) |
| 101 | COC(=O)c1ccc(Br)cn1 |
| 88.5 to 89.5 | Ic1ccc(OC2CCOCC2)cc1 |
| 213 | CC(=O)OC1CC2C(C)(C)CCCC2(C)C2=C1C(=O)C(C(C)C)=C(O)C2=O (stereo not drawn) |
| 96.5 | CCOc1ccc([N+](=O)[O-])cc1N |
| 121 | COc1cc(C(=O)N2CCOCC2)cc(OC)c1OC |
| 138 | CC(=O)CCc1cc2c(cc1[N+](=O)[O-])CCC(C)N2C(=O)c1ccccc1 (stereo not drawn) |
| 137 to 139 | CCOC(=O)c1cc(-c2cccs2)n[nH]1 |
| 187 to 190 | CCOC(=O)NC(=S)Nc1sc2c(c1C(=O)OCC)CCCC2 |
| 308 to 310 | Cc1nn(C)c(Cl)c1S(=O)(=O)O |
| 82 to 84 | COc1ccc(C)cc1S(=O)(=O)Cl |
| 135 | CC(C)(C)c1cc(O)c(O)c(O)c1 |
| 56 | C/C=C/C(=O)N1C(=O)OC[C@@H]1C(C)C |
| 234 | Cn1c([N+](=O)[O-])cnc1C=Cc1ccnc(N)n1 |
| 72 to 73 | Cc1ccc(S(=O)(=O)OCC2Cc3ccccc3O2)cc1 (stereo not drawn) |
| 55 | C[Si](C)(C)c1cnc([Si](C)(C)C)s1 |
| 117 to 120 | CC(C)(Oc1ccc(C#N)cc1)C(=O)O |
| 108 | Cc1cnccc1N |
| 51.6 | CCc1cc(C)cc(O)c1 |

| melting point [°C] | SMILES |
| --- | --- |
| 102 | Cc1cc([N+](=O)[O-])ccc1I |
| 117 to 119 | CC(=O)OC1CCC2(C)C3CCC4=C(CCC4(C)C(C)OC(C)=O)C3CCC2(C)C1 (stereo not drawn) |
| 132 | CC(=O)OCC1=CC2OC(=O)C3=COC(OC4OC(CO)C(O)C(O)C4O)C1C32 (stereo not drawn) |
| 134 | COC(=O)C1(C(=O)OC)Cc2cc(OC)ccc2C(=O)O1 |
| 25 to 27 | CC(=O)c1c(O)cccc1OCCC(C)C |
| 76.5 | ON=C(C1CC1)C1CC1 |
| 60 to 64 | CCCCOc1ccc(N)cc1[N+](=O)[O-] |
| 10 | CCN(O)CC |
| 152 to 153 | Cc1noc(-c2ccccc2C(=O)O)n1 |
| 168 to 172 | CC(=O)Nc1ccc(Cl)c(N)c1 |
| 84 to 85 | CCOC(=O)c1c(C)oc(N)c1C(=O)OCC |
| 37 | Cc1cccc(Cl)c1C=O |
| 228 | N#Cc1cnc2[nH]ccc2c1 |
| 47 | CN(NC=O)c1ccccc1 |
| 80 | O=C(OCc1ccccc1)ON1C(=O)CCC1=O |
| 260 | CC(C)N1CSc2nnc(-c3ccc([N+](=O)[O-])cc3)n2C1 |
| 65 | CCOC(=O)Nc1c([N+](=O)[O-])cc(C)cc1[N+](=O)[O-] |
| 240 to 243 | OC1CC(c2ccccc2)NC2(CCCC2)C1 (stereo not drawn) |
| 108 to 110 | Clc1ncnc2sc3c(c12)CCC3 |
| 103 to 105 | Clc1ccc2nc(N3CCCNCC3)sc2c1 |
| 64 to 65 | CC1(O)CSC(C)(O)CS1 (stereo not drawn) |

| melting point [°C] | SMILES |
| --- | --- |
| 79 to 80 | N#Cc1ccnc(N2CCCC2)c1 |
| 104 to 107 | CC(=O)C1CC(CC(=O)O)C1(C)C (stereo not drawn) |
| 205 to 206 | COC(=O)C1=C(C)NC(CBr)=C(C(=O)OCCCl)C1c1cccc([N+](=O)[O-])c1 (stereo not drawn) |
| 192 | Cc1ccnc(SCC(=O)O)n1 |
| 50 to 53 | C[Si](C)(C)CCS(=O)(=O)c1ccccc1 |
| 76 to 80 | O=C1CCC2OCC(c3ccccc3)N12 (stereo not drawn) |
| 39 | Cc1ccc(F)cc1N |
| 133 | CC(C)(C)OC(=O)NC1(C(=O)O)CCCC1 |
| 115 | COC(=O)c1c(-c2c(Cl)cccc2Cl)noc1C |
| 187 | Cc1c(N)cccc1C(=O)O |
| 234 to 236 | O=C(O)[C@H]1NCC[C@@H]1c1ccccc1 |
| 73 | Cc1cc(O)c(Cl)cc1Cl |
| 68 to 71 | CCOc1cc2c(cc1OCC)C(C)=NCC2 |
| 218 to 220 | Cc1n[nH]c2c(=O)n(Cc3ccc(Cl)cc3)c(C)nc12 |
| 110 | Cn1c(Cl)cc(=O)n(C)c1=O |
| -118 | CC1=CCCC1C (stereo not drawn) |
| 38.5 | CSc1ccc(Br)cc1 |
| 161 | Cc1c(C)c2c(c3c1CC3=O)CC2=O |
| 71 | O=C1Cc2cccc(Cl)c21 |
| 49 | Cc1cc(S(=O)(=O)Cl)c(C)cc1Cl |
